Measured values taken from ChEMBL document CHEMBL1201862, “PubChem BioAssay data set” (2004).
Calls of active or inactive are those of the source.

Tests used:
[1] = Luminescence Cell-Based Dose Confirmation HTS to Identify Inhibitors of Platelet Dense Granule Release. [Related pubchem assays: 1663 (Primary HTS), 1678 (Summary of Project)]; format: functional
[2] = target: 1-phosphatidylinositol 4,5-bisphosphate phosphodiesterase beta-3 (Homo sapiens, UniProt Q01970); test: Fluorescence-based biochemical high throughput dose response assay to identify inhibitors of phospholipase C isozymes (PLC-B3).
[3] = target: Luciferin 4-monooxygenase (Photinus pyralis, UniProt P08659); test: firefly luciferase enzyme inhibitors, dose response, biochemical, luminescence (AID 1891)
[4] = target: 1-phosphatidylinositol 4,5-bisphosphate phosphodiesterase gamma-1 (Homo sapiens, UniProt P19174); test: Counterscreen for inhibitors of phospholipase C isozymes (PLC-B3): Fluorescence-based biochemical high throughput dose response assay to identify inhibitors of phospholipase C isozymes (PLC-gamma1).
[5] = target: T1, Sentrin-specific protease 6 (Homo sapiens, UniProt Q9GZR1); format: functional;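 note: Luminescence-based dose-response confirmatory assay of SENP6 inhibition, following up an ultra-high-throughput screen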
T1 sequence (Q9GZR1 whole entry): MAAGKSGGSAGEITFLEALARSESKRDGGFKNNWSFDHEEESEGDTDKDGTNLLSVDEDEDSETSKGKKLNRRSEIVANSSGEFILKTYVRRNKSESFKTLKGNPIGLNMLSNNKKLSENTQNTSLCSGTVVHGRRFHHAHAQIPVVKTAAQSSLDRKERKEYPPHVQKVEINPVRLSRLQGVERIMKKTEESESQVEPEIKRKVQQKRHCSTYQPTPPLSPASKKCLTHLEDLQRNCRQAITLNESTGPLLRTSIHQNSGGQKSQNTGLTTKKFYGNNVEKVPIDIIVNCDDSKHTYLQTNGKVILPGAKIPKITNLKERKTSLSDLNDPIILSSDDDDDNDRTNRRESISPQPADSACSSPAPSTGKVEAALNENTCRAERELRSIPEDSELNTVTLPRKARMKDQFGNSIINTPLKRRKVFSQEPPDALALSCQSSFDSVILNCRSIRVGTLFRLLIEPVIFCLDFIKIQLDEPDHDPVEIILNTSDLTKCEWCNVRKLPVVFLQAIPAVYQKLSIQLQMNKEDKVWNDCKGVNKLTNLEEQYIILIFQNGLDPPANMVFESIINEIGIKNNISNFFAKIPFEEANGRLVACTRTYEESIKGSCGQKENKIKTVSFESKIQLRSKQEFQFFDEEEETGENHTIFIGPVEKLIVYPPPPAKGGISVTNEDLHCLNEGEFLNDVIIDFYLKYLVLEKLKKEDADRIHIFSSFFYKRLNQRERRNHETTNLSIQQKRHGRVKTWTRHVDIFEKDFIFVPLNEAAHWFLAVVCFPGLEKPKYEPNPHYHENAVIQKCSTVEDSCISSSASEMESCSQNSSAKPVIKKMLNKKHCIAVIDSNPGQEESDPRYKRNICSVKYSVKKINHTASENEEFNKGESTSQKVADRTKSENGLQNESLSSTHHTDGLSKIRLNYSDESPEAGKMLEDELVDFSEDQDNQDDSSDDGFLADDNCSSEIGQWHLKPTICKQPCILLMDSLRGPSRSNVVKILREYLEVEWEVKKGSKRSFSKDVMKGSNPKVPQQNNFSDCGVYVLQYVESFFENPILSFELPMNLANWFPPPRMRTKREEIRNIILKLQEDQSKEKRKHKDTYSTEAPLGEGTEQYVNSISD

[6] = target: T2, Oxysterols receptor LXR-beta (Homo sapiens, UniProt P55055); format: functional, cell-based;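 note: agonist activity at LXR measured by a cell-based luminescence readout across a dose range, run as a counterscreen for daf-12 agonists; potency for activation of Gal4-LXR reporter so compounds are agonists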
T2 sequence (P55055 whole entry): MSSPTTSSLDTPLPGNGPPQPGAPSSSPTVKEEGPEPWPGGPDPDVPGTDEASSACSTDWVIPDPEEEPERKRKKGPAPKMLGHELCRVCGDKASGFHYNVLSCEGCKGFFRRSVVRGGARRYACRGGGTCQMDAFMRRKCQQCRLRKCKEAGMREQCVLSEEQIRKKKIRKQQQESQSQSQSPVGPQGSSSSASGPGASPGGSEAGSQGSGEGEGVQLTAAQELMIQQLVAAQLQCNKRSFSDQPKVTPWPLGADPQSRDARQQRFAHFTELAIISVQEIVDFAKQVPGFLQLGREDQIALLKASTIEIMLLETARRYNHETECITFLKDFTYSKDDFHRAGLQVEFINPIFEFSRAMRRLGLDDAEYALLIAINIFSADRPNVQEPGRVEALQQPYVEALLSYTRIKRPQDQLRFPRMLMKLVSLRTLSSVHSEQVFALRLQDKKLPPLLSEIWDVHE

[7] = target: T3, Sentrin-specific protease 7 (Homo sapiens, UniProt Q9BQF6); format: functional;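 note: Luminescence-based dose-response confirmation of ultra-high-throughput screening hits, measuring inhibition of SENP7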
T3 sequence (Q9BQF6 whole entry): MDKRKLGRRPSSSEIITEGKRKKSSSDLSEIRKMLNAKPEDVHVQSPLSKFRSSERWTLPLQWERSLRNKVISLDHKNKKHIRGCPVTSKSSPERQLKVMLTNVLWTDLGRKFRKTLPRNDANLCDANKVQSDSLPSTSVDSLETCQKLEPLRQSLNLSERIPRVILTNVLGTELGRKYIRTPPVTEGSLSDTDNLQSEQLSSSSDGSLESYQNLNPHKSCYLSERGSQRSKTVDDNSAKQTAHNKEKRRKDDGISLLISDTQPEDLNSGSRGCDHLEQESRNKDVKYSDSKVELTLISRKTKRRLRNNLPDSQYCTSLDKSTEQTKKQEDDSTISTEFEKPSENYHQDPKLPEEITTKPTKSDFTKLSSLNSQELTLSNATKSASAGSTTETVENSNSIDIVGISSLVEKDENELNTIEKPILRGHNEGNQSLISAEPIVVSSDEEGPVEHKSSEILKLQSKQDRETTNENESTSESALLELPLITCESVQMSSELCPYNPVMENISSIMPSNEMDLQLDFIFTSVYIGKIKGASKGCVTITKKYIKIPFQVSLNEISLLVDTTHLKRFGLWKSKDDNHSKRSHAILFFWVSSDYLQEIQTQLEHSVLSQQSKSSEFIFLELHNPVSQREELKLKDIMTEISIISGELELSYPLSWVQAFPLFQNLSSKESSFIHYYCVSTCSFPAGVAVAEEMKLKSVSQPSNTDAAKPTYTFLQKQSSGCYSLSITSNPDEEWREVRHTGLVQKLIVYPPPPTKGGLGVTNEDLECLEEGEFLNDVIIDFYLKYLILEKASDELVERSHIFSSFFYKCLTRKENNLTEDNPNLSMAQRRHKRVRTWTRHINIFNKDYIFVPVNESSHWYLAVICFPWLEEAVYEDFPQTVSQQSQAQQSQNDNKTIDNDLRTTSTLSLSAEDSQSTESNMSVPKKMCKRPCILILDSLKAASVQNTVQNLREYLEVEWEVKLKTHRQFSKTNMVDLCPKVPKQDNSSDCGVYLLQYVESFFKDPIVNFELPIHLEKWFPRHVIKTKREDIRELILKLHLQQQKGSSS

[8] = Luminescence-based cell-based high throughput dose response assay to identify activators of the DAF-12 from the parasite S. stercoralis (ssDAF-12).; format: functional
[9] = target: T4, Caspase-3 (Homo sapiens, UniProt P42574); format: functional;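 note: Dose-response selectivity test against caspase-3 for candidate inhibitors of sentrin-specific proteases (SENPs)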
T4 sequence (P42574 whole entry): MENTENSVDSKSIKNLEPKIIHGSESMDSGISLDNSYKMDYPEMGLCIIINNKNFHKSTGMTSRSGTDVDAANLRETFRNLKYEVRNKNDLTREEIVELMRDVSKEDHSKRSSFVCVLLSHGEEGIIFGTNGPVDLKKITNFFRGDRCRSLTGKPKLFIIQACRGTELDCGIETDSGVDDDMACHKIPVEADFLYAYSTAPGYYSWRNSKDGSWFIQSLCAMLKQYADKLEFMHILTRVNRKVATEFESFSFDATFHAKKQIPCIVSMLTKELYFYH

[10] = target: T2, Oxysterols receptor LXR-beta; test: LXR agonists, Gal4 luciferase reporter, dose response, counter-screen for ssDAF-12 agonist project, cell-based, luminescence, HEK293, S. stercoralis campaign (AID 720737); format: functional; conditions: read-out: IC50 (the source's name)
[11] = target: T5, Sentrin-specific protease 8 (Homo sapiens, UniProt Q96LD8); format: functional;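 note: luminescence read-out of SENP8 inhibition, dose-response confirmation following an ultra-high-throughput screen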
T5 sequence (Q96LD8 whole entry): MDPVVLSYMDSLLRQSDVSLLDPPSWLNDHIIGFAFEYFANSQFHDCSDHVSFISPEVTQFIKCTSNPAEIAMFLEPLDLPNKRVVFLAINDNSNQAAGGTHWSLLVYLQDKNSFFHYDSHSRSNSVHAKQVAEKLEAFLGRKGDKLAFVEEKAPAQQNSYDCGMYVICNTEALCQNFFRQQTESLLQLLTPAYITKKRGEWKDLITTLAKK

[12] = target: Kallikrein-7 (Homo sapiens, UniProt P49862); test: Fluorescence Intensity-based biochemical primary high throughput dose response assay to identify activators of kallikrein-7 (K7) zymogen.
[13] = Luminescence Cell-Based Dose Response HTS to Identify Activators of Luciferase Translation or Activity in H4 […] Cells. [Related pubchem assays: 1829 (Project Summary), 1814 (Primary HTS)]; format: functional
[14] = tested on: Vero; test: Vero cell cytotoxicity, cytotoxicity control for flavivirus capping enzyme inhibitors (AID 588742); format: functional; conditions: Chlorocebus sabaeus
[15] = Luminescence Cell-Based Dose Confirmation HTS to Identify Activators of 5'UTR Stem-Loop Driven Alpha-Synuclein mRNA Translation in H4 Neuroglioblastoma Cells. [Related pubchem assays: 1829 (Project Summary), 1814 (Primary HTS)]; format: functional
[16] = Artemis endonuclease inhibitor potency, dose response, biochemical, fluorescence intensity (AID 720701); format: functional;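 note: Artemis endonuclease enzyme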
[17] = tested on: H4; test: Luminescence Cell-Based Dose Response HTS to Identify Activators of 5'UTR Stem-Loop Driven Prion Protein mRNA Translation in H4 Neuroglioblastoma Cells. [Related pubchem assays: 1829 (Project Summary), 1814 (Primary HTS)]; format: functional; conditions: Homo sapiens
[18] = inhibitors of non-replicating M. tuberculosis, dose response, luciferase, dry powder (AID 651619); format: functional; conditions: Mycobacterium tuberculosis
[19] = growth inhibition of replicating M. tuberculosis, dose response, counter-screen, dry powder, IC90 (AID 651617); format: functional; conditions: Mycobacterium tuberculosis
[20] = inhibitors of non-replicating M. tuberculosis, dose response, luciferase, dry powder (AID 651620); format: functional; conditions: Mycobacterium tuberculosis
[21] = HeLa cell cytotoxicity, dose response, cytotoxicity control, 24 h, plate reader, powder samples, set 3 (AID 651864); format: functional, cell-based
[22] = MITF: Counter assay: A375 proliferation Measured in Cell-Based System Using Plate Reader - 2084-03_Inhibitor_Dose_DryPowder_Activity_Set8.; format: functional; conditions: A-375
[23] = A375 melanoma cell viability loss, dose response, counter-screen for MITF modulator project, CellTiter-Glo luminescence, dry powder, set 9 (AID 651591); format: functional, cell-based; conditions: A-375
[24] = MALME3 melanoma cell viability reduction, dose response, orthogonal assay for MITF inhibitor project, CellTiter-Glo luminescence, dry powder, set 5 (AID 651584); format: functional, cell-based; conditions: MALME-3
[25] = TRPM1 promoter luciferase reporter signal decrease, dose response, MITF inhibitor project, cell-based, SK-MEL-5, dry powder, set 9 (AID 651588); format: functional
[26] = MITF Orthogonal Assay: SK-MEL-5 CTG Assay Measured in Cell-Based System Using Plate Reader - 2084-02_Inhibitor_Dose_DryPowder_Activity_Set7.; format: functional
[27] = cytotoxicity in primary human melanocytes, dose response, cytotoxicity control, cell-based, plate reader, dry powder (AID 651920); format: functional
[28] = TRPM1 promoter luciferase reporter signal decrease, dose response, MITF inhibitor project, cell-based, SK-MEL-5, dry powder, set 8 (AID 624430); format: functional
[29] = MITF Orthogonal Assay: MALME3 CTG Assay Measured in Cell-Based System Using Plate Reader - 2084-04_Inhibitor_Dose_DryPowder_Activity_Set6.; format: functional; conditions: MALME-3
[30] = SK-MEL-5 parental cell viability reduction, dose response, orthogonal assay for MITF inhibitor project, CellTiter-Glo luminescence, dry powder, set 8 (AID 651586); format: functional, cell-based
[31] = HIV Env cell-cell fusion inhibitors, dose response, HIV entry, plate reader, dry powder (AID 687023); format: functional, cell-based
[32] = CEM21 cell cytotoxicity, dose response, cytotoxicity control, plate reader, dry powder (AID 687026); format: functional, cell-based

Sequence of Luciferin 4-monooxygenase (P08659 whole entry): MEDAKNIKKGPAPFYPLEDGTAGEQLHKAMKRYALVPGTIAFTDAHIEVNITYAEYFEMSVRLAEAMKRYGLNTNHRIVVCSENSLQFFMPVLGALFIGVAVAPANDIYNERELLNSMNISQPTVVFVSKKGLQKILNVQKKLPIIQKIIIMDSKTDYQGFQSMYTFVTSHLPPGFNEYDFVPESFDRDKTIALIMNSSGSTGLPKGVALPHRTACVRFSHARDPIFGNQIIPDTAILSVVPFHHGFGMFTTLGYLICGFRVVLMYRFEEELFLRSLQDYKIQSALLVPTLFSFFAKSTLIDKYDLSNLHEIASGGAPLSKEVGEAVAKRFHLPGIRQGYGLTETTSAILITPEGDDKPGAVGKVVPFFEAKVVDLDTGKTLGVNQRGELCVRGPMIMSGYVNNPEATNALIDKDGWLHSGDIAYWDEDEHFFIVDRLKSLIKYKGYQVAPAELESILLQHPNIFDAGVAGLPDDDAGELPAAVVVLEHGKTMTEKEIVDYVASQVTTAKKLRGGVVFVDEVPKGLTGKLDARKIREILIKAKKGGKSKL
Sequence of 1-phosphatidylinositol 4,5-bisphosphate phosphodiesterase beta-3 (Q01970 whole entry): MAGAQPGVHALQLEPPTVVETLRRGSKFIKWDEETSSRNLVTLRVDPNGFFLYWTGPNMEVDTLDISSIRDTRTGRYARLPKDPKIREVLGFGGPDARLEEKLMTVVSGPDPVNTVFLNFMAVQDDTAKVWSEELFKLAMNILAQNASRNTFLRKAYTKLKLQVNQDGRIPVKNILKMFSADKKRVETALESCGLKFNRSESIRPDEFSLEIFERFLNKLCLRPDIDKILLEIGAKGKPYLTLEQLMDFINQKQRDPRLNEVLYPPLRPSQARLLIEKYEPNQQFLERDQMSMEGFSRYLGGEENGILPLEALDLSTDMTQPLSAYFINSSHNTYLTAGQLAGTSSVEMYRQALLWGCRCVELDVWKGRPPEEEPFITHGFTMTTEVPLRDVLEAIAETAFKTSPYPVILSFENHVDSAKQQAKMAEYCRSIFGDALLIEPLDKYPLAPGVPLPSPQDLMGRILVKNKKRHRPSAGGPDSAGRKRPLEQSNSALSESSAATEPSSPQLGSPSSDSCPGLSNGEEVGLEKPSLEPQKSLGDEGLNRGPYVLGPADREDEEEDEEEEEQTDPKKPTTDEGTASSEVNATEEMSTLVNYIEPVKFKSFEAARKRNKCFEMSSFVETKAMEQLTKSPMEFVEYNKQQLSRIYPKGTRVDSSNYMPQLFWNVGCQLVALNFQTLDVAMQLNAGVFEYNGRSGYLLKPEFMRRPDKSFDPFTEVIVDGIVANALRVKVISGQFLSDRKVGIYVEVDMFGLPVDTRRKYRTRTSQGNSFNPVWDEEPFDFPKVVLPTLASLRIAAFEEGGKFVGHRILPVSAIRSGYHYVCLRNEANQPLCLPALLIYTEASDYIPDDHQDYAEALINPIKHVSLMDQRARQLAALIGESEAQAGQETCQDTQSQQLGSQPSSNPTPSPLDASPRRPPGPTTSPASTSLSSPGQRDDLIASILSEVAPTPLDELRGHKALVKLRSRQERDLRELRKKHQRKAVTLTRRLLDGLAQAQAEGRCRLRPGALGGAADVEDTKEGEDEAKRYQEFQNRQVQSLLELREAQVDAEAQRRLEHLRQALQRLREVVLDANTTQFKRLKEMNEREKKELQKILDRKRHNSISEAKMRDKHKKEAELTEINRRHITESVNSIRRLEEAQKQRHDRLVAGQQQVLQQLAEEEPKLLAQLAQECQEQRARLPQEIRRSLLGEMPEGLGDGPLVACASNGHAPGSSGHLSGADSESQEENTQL
Sequence of 1-phosphatidylinositol 4,5-bisphosphate phosphodiesterase gamma-1 (P19174 whole entry): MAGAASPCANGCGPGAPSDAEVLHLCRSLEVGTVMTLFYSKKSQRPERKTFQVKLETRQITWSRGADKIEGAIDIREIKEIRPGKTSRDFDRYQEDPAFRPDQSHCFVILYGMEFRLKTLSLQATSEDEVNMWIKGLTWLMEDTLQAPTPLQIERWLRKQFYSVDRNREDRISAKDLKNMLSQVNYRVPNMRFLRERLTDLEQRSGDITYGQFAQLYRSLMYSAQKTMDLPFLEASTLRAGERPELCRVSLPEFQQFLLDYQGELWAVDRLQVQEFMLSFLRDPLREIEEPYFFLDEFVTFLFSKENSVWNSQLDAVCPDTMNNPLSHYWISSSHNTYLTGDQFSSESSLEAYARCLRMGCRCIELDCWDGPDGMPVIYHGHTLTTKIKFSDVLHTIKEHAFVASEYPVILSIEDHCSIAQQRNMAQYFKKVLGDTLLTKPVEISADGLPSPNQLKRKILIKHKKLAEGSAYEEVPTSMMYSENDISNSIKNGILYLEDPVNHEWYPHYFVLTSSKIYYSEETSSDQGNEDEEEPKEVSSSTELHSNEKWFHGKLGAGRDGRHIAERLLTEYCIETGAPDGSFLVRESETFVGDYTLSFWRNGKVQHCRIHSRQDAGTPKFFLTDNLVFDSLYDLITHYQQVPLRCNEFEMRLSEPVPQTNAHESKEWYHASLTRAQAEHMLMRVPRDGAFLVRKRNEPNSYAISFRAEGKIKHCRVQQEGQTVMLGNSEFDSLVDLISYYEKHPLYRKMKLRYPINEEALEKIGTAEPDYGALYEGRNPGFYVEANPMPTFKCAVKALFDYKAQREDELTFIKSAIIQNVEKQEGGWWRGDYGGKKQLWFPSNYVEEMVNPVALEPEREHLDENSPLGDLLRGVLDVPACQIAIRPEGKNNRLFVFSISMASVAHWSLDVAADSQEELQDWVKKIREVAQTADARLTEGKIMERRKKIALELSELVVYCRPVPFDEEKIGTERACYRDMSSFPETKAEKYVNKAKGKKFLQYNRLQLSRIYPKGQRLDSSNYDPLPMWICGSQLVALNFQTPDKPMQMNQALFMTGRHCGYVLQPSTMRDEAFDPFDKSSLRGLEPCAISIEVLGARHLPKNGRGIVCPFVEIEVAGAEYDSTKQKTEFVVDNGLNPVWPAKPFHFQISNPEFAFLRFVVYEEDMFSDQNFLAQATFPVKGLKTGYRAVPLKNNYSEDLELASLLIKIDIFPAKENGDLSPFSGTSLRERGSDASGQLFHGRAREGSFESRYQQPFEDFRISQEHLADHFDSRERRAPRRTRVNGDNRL
Sequence of Kallikrein-7 (P49862 whole entry): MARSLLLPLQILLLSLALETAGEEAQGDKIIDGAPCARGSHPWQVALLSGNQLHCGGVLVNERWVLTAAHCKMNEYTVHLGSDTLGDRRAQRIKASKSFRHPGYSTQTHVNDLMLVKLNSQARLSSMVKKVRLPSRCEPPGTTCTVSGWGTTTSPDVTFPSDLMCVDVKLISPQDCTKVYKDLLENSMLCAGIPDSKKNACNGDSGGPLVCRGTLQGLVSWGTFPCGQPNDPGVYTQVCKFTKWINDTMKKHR

Nc1ncnc2c1ncn2[C@@H]1O[C@H](COP(=O)(O)O)[C@@H](O)[C@H]1O
EC50 [1]: 1.13 µM (active)
IC50 [2]: > 122 µM (inactive)
EC50 [3]: 1.48 µM (active)
IC50 [4]: 13.2 µM (inactive)

Cc1csc(NC(=O)c2ccc3ccccc3n2)n1
IC50 [5]: 11 µM (active)
EC50 [6]: > 67.6 µM (inactive)
IC50 [7]: 5.25 µM (active)
IC50 [8]: > 67.6 µM (inactive)
IC50 [9]: 6.96 µM (active)
EC50 [10]: > 67.6 µM (inactive)
IC50 [11]: 16.2 µM (active)

CC1(C)CC(=O)C2=C(C1)c1c(ccc3ccccc13)NC2c1ccc(OCC(=O)O)cc1 (configuration not stated)
EC50 [12]: > 69.5 µM (inactive)

O=C(Nc1ccc2oc(-c3cccc4ccccc34)nc2c1)c1nc[nH]n1
EC50 [13]: 15.8 µM (active)
CC50 [14]: > 40 µM (active)
EC50 [15]: 0.627 µM (active)
IC50 [16]: 7.47 µM (active)
EC50 [17]: 5.42 µM (active)

c1ccc(-c2nnc(SCc3ccncc3)o2)cc1
IC90 [18]: 31 µM (active)
IC90 [19]: 250 µM (active)
IC90 [20]: 31 µM (active)

CCc1ccccc1NCc1ccc(N2CCCC2)cc1
AC50 [21]: 149 µM (active)

O=C1C=C(Nc2ccc([N+](=O)[O-])c(C(F)(F)F)c2)C(=O)c2ccccc21
AC50 [22]: > 70 µM (inactive)
AC50 [23]: > 70 µM (inactive)
AC50 [24]: 27.7 µM (active)
AC50 [25]: 15.3 µM (active)
AC50 [26]: 1.06 µM (active)
AC50 [27]: 8.56 µM (active)
AC50 [28]: 5.19 µM (active)
AC50 [29]: 27.7 µM (active)
AC50 [30]: 36.1 µM (active)

Cc1noc(C)c1S(=O)(=O)Nc1cccc2c1O[C@@H](CN(C)Cc1ccc(C(F)(F)F)cc1)[C@@H](C)CN([C@H](C)CO)C2=O
AC50 [31]: 18.6 µM (active)
AC50 [32]: > 70 µM (inactive)
